Assay results from patent publication US20080119515A1, “Heterocyclic Kinase Inhibitors: Methods of Use and Synthesis” (priority 2003, published 2008).

molecular target: T1, ZAP-70 (Homo sapiens, UniProt P43403); assay: DELFIA assay (ZAP-70 kinase, phosphorylation of biotinylated poly(glu,tyr)); format: biochemical; conditions: ZAP-70 DELFIA, class symbols; read-out: Activity (IC50 in vitro)
T1 sequence (P43403 1-619): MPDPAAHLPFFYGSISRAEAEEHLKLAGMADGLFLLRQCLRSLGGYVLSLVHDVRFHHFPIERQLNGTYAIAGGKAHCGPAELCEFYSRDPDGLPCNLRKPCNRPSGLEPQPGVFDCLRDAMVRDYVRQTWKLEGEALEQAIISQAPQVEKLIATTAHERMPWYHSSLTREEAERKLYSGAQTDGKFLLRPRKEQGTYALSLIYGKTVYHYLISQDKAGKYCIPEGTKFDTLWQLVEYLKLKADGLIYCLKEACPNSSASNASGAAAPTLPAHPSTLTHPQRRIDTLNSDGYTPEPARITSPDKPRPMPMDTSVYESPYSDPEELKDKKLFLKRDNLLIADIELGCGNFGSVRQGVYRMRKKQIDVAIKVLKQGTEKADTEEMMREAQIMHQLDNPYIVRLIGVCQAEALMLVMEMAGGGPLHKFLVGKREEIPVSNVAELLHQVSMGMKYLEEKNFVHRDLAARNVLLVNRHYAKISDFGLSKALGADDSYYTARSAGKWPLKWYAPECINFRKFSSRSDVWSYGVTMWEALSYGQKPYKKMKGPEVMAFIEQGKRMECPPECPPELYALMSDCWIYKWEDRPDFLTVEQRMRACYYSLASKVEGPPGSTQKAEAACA
Procedure, shortened: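 3.1 nM ZAP-70 pre-incubated 10 min at room temperature with compound ([…]) and 62.5 nM biotinylated poly(glu,tyr) in 62.5 mM Mops pH 7.0, 12.5 mM MgCl2, 12.5% glycerol, 6.25% DMSO (pre-incubation concentrations); ATP added from 5 mM stock, 30 min reaction, EDTA stop. Phosphorylation read by DELFIA europium anti-phosphotyrosine fluorescence (340/615).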

Row | IC50 [µM] | Compound
1 | > 10 | N#Cc1ccc(-c2ccc3nc(NCc4ccc(Cl)cc4F)cc(C(=O)N4CCC[C@H]4CN4CCCC4)c3c2)cc1 [Compound 180]
2 | > 10 | N#Cc1ccc(-c2ccc3nc(NCc4ccccc4Br)cc(C(=O)N4CCC[C@H]4CN4CCCC4)c3c2)cc1 [Compound 181]
3 | > 10 | N#Cc1ccc(-c2ccc3nc(N[C@@H]4CCc5ccccc54)cc(C(=O)N4CCC[C@H]4CN4CCCC4)c3c2)cc1 [Compound 182]
4 | > 10 | N#Cc1ccc(-c2ccc3nc(N[C@H]4CCc5ccccc54)cc(C(=O)N4CCC[C@H]4CN4CCCC4)c3c2)cc1 [Compound 183]
5 | > 10 | CC[C@@H](Nc1cc(C(=O)N2CCC[C@H]2CN2CCCC2)c2cc(-c3ccc(C#N)cc3)ccc2n1)c1ccccc1 [Compound 184]
6 | > 10 | COC[C@H](Cc1ccccc1)Nc1cc(C(=O)N2CCC[C@H]2CN2CCCC2)c2cc(-c3ccc(C#N)cc3)ccc2n1 [Compound 185]
7 | > 10 | C[C@@H](CNc1cc(C(=O)N2CCC[C@H]2CN2CCCC2)c2cc(-c3ccc(C#N)cc3)ccc2n1)c1ccccc1 [Compound 186]
8 | > 10 | C[C@H](CNc1cc(C(=O)N2CCC[C@H]2CN2CCCC2)c2cc(-c3ccc(C#N)cc3)ccc2n1)c1ccccc1 [Compound 187]
9 | > 10 | N#Cc1ccc(-c2ccc3nc(NCc4cc(F)cc(F)c4)cc(C(=O)N4CCC[C@H]4CN4CCCC4)c3c2)cc1 [Compound 188]
10 | > 10 | N#Cc1ccc(-c2ccc3nc(NCc4cc(Cl)cc(Cl)c4)cc(C(=O)N4CCC[C@H]4CN4CCCC4)c3c2)cc1 [Compound 189]
11 | > 10 | N#Cc1ccc(-c2ccc3nc(NCc4cccc(OC(F)(F)F)c4)cc(C(=O)N4CCC[C@H]4CN4CCCC4)c3c2)cc1 [Compound 190]
12 | > 10 | N#Cc1ccc(-c2ccc3nc(NCCc4ccccc4F)cc(C(=O)N4CCC[C@H]4CN4CCCC4)c3c2)cc1 [Compound 191]
13 | > 10 | N#Cc1ccc(-c2ccc3nc(NCCc4ccc(F)cc4)cc(C(=O)N4CCC[C@H]4CN4CCCC4)c3c2)cc1 [Compound 192]
14 | > 10 | N#Cc1ccc(-c2ccc3nc(NCCc4ccc(Cl)cc4Cl)cc(C(=O)N4CCC[C@H]4CN4CCCC4)c3c2)cc1 [Compound 193]
15 | > 10 | N#Cc1ccc(-c2ccc3nc(NCCc4cccc(F)c4)cc(C(=O)N4CCC[C@H]4CN4CCCC4)c3c2)cc1 [Compound 194]
16 | > 10 | N#Cc1ccc(-c2ccc3nc(NCc4cc(F)cc(C(F)(F)F)c4)cc(C(=O)N4CCC[C@H]4CN4CCCC4)c3c2)cc1 [Compound 195]
17 | > 10 | N#Cc1ccc(-c2ccc3nc(NCCc4cccc(Cl)c4)cc(C(=O)N4CCC[C@H]4CN4CCCC4)c3c2)cc1 [Compound 196]
18 | > 10 | COc1cccc(CCNc2cc(C(=O)N3CCC[C@H]3CN3CCCC3)c3cc(-c4ccc(C#N)cc4)ccc3n2)c1 [Compound 197]
19 | > 10 | N#Cc1ccc(-c2ccc3nc(NCc4ccc(F)cc4F)cc(C(=O)N4CCC[C@H]4CN4CCCC4)c3c2)cc1 [Compound 198]

Row | IC50 [µM] | Compound
20 | > 10 | C[C@@H](c1ccccc1)N(C)c1cc(C(=O)N2CCC[C@H]2CN2CCCC2)c2cc(-c3ccc(C#N)cc3)ccc2n1 [Compound 199]
21 | > 10 | C[C@H](c1ccccc1)N(C)c1cc(C(=O)N2CCC[C@H]2CN2CCCC2)c2cc(-c3ccc(C#N)cc3)ccc2n1 [Compound 200]
22 | > 10 | C[C@@H](Nc1cc(C(=O)N2CCC[C@H]2CN2CCCC2)c2cc(-c3ccc(C#N)cc3)ccc2n1)c1ccccc1 [Compound 201]
23 | > 10 | COc1ccc([C@@H](C)Nc2cc(C(=O)N3CCC[C@H]3CN3CCCC3)c3cc(-c4ccc(C#N)cc4)ccc3n2)cc1 [Compound 202]
24 | > 10 | COc1cccc([C@@H](C)Nc2cc(C(=O)N3CCC[C@H]3CN3CCCC3)c3cc(-c4ccc(C#N)cc4)ccc3n2)c1 [Compound 203]
25 | > 10 | COc1cccc([C@H](C)Nc2cc(C(=O)N3CCC[C@H]3CN3CCCC3)c3cc(-c4ccc(C#N)cc4)ccc3n2)c1 [Compound 204]
26 | > 10 | N#Cc1ccc(-c2ccc3nc(N[C@@H]4CCCc5ccccc54)cc(C(=O)N4CCC[C@H]4CN4CCCC4)c3c2)cc1 [Compound 205]
27 | > 10 | N#Cc1ccc(-c2ccc3nc(N[C@H]4CCCc5ccccc54)cc(C(=O)N4CCC[C@H]4CN4CCCC4)c3c2)cc1 [Compound 206]
28 | > 10 | C[C@@H](Nc1cc(C(=O)N2CCC[C@H]2CN2CCCC2)c2cc(-c3ccc(C#N)cc3)ccc2n1)c1ccc2ccccc2c1 [Compound 207]
29 | > 10 | CC(Nc1cc(C(=O)N2CCC[C@H]2CN2CCCC2)c2cc(-c3ccc(C#N)cc3)ccc2n1)c1ccc2ccccc2c1 (some centres unmarked) [Compound 208]
30 | > 10 | N#Cc1ccc(-c2ccc3nc(N[C@@H]4c5ccccc5C[C@@H]4O)cc(C(=O)N4CCC[C@H]4CN4CCCC4)c3c2)cc1 [Compound 209]
31 | > 10 | N#Cc1ccc(-c2ccc3nc(N(Cc4ccccc4)Cc4ccccc4)cc(C(=O)N4CCC[C@H]4CN4CCCC4)c3c2)cc1 [Compound 210]
32 | > 10 | CN(Cc1ccccc1Cl)c1cc(C(=O)N2CCC[C@H]2CN2CCCC2)c2cc(-c3ccc(C#N)cc3)ccc2n1 [Compound 211]
33 | > 10 | N#Cc1ccc(-c2ccc3nc(N(CCO)Cc4ccccc4)cc(C(=O)N4CCC[C@H]4CN4CCCC4)c3c2)cc1 [Compound 212]
34 | > 10 | N#Cc1ccc(-c2ccc3nc(N(CCCO)Cc4ccccc4)cc(C(=O)N4CCC[C@H]4CN4CCCC4)c3c2)cc1 [Compound 213]
35 | > 10 | C[C@@H](Nc1cc(C(=O)N2CCC[C@H]2CN2CCCC2)c2cc(-c3ccc(C#N)cc3)ccc2n1)[C@@H](O)c1ccccc1 [Compound 214]
36 | > 10 | N#Cc1ccc(-c2ccc3nc(N4CCc5[nH]c6c(F)cccc6c5C4)cc(C(=O)N4CCC[C@H]4CN4CCCC4)c3c2)cc1 [Compound 215]
37 | > 10 | N#Cc1ccc(-c2ccc3nc(NCc4cccc5ccccc45)cc(C(=O)N4CCC[C@H]4CN4CCCC4)c3c2)cc1 [Compound 216]
38 | > 10 | N#Cc1ccc(-c2ccc3nc(NCc4cccc(-c5ccccc5)c4)cc(C(=O)N4CCC[C@H]4CN4CCCC4)c3c2)cc1 [Compound 217]

Row | IC50 [µM] | Compound
39 | > 10 | C[C@H](c1cccc2ccccc12)N(C)c1cc(C(=O)N2CCC[C@H]2CN2CCCC2)c2cc(-c3ccc(C#N)cc3)ccc2n1 [Compound 218]
40 | > 10 | C[C@@H](c1cccc2ccccc12)N(C)c1cc(C(=O)N2CCC[C@H]2CN2CCCC2)c2cc(-c3ccc(C#N)cc3)ccc2n1 [Compound 219]
41 | > 10 | N#Cc1ccc(-c2ccc3nc(NCCc4ccc(Cl)c(Cl)c4)cc(C(=O)N4CCC[C@H]4CN4CCCC4)c3c2)cc1 [Compound 220]
42 | > 10 | C[C@H](Nc1cc(C(=O)N2CCC[C@H]2CN2CCCC2)c2cc(-c3ccc(C#N)cc3)ccc2n1)c1ccc(Br)cc1 [Compound 221]
43 | > 10 | CC(Nc1cc(C(=O)N2CCC[C@H]2CN2CCCC2)c2cc(-c3ccc(C#N)cc3)ccc2n1)c1ccc(Br)cc1 (some centres unmarked) [Compound 222]
44 | > 10 | CC(Nc1cc(C(=O)N2CCC[C@H]2CN2CCCC2)c2cc(-c3ccc(C#N)cc3)ccc2n1)c1ccc(F)cc1 (some centres unmarked) [Compound 223]
45 | > 10 | Cc1ccc(CNc2cc(C(=O)N3CCC[C@H]3CN3CCCC3)c3cc(-c4ccc(C#N)cc4)ccc3n2)c(C)c1 [Compound 224]
46 | > 10 | Cc1cc(CNc2cc(C(=O)N3CCC[C@H]3CN3CCCC3)c3cc(-c4ccc(C#N)cc4)ccc3n2)ccc1F [Compound 225]
47 | > 10 | Cc1ccc(F)cc1CNc1cc(C(=O)N2CCC[C@H]2CN2CCCC2)c2cc(-c3ccc(C#N)cc3)ccc2n1 [Compound 226]
48 | > 10 | Cc1ccc(CNc2cc(C(=O)N3CCC[C@H]3CN3CCCC3)c3cc(-c4ccc(C#N)cc4)ccc3n2)cc1F [Compound 227]
49 | > 10 | CSc1ccccc1CNc1cc(C(=O)N2CCC[C@H]2CN2CCCC2)c2cc(-c3ccc(C#N)cc3)ccc2n1 [Compound 228]
50 | > 10 | N#Cc1ccc(-c2ccc3nc(NCc4cccc(Cl)c4F)cc(C(=O)N4CCC[C@H]4CN4CCCC4)c3c2)cc1 [Compound 229]
51 | > 10 | N#Cc1ccc(-c2ccc3nc(NCc4cc(Cl)ccc4F)cc(C(=O)N4CCC[C@H]4CN4CCCC4)c3c2)cc1 [Compound 230]
52 | > 10 | N#Cc1ccc(-c2ccc3nc(NCc4csc5ccccc45)cc(C(=O)N4CCC[C@H]4CN4CCCC4)c3c2)cc1 [Compound 231]
53 | > 10 | N#Cc1ccc(-c2ccc3nc(NCc4ccccc4OC(F)F)cc(C(=O)N4CCC[C@H]4CN4CCCC4)c3c2)cc1 [Compound 232]
54 | > 10 | N#Cc1ccc(-c2ccc3nc(NCc4ccc(OC(F)F)cc4)cc(C(=O)N4CCC[C@H]4CN4CCCC4)c3c2)cc1 [Compound 233]
55 | > 10 | N#Cc1ccc(-c2ccc3nc(NCc4ccc(-c5cccs5)cc4)cc(C(=O)N4CCC[C@H]4CN4CCCC4)c3c2)cc1 [Compound 234]
56 | > 10 | N#Cc1ccc(-c2ccc3nc(NCc4ccccc4N4CCCCC4)cc(C(=O)N4CCC[C@H]4CN4CCCC4)c3c2)cc1 [Compound 235]
